US20200316092A1, “METHODS OF DIAGNOSIS AND TREATMENT OF LIVER DISEASES USING OBETICHOLIC ACID” (Intercept Pharmaceuticals, Inc., priority 2019, published 2020)
Entries after “also recorded” stand apart in the source; their conditions may differ.

How the values were obtained:
Format in all cases: in vivo, human
[1] = Phase 1 study: plasma pharmacokinetics of total OCA; conditions: 10 mg QD or 25 mg QD
Description: (§1) The primary objectives of this study are to evaluate the safety and tolerability of OCA treatment in subjects with NASH with fibrosis and to evaluate single- and multiple-dose pharmacokinetics of OCA, its conjugates, and metabolites in subjects with NASH with fibrosis.
Furthermore, although there were a limited number of subjects having a fibrosis score of F4, plasma exposure was lower in these subjects as compared to the subjects with a fibrosis score of F1 or F2/F3.

[2] = test system: subjects with nonalcoholic steatohepatitis with fibrosis; test: Phase 1 placebo-controlled study: safety and tolerability (TEAE incidence); conditions: for Total Number of TEAEs: 85 days; for Total Number of TEAEs / Any Serious TEAE / Constipation (TEAE incidence) / Diabetes mellitus (TEAE) / Fatigue (TEAE incidence) / Headache (TEAE incidence) / Hepatobiliary disorders (SOC) (TEAE) / Hypercholesterolemia (TEAE) / LDL Increased, Mild (maximum severity) / LDL Increased, Moderate (maximum severity) / LDL Increased, Severe (maximum severity) / Low density lipoprotein increased (TEAE incidence) / Nausea (TEAE incidence) / Pneumonia (TEAE incidence) / Pruritis (TEAE incidence) / Pruritus, Mild (maximum severity) / Pruritus, Moderate (maximum severity) / Pruritus, Severe (maximum severity) / Subjects with at least one TEAE: n = 20
Description: Example 1: A Phase 1, Double-Blind, Randomized, Placebo-Controlled Study to Evaluate Safety, Pharmacokinetics, and Pharmacodynamics of Obeticholic Acid in Subjects with Nonalcoholic Steatohepatitis with Fibrosis
as §1
The study comprised three treatment groups-10 mg QD, 25 mg QD and Placebo QD.

[3] = Phase 1 study: liver exposure of OCA and its conjugates
FXR activation = test: Phase 1 study: pharmacodynamic markers of FXR activation (C4, bile acids, FGF-19); conditions: Day 85 compared to baseline
Description: (§2) The secondary objectives of this study are to evaluate the pharmacodynamics of OCA on FXR activation and to evaluate liver chemistries and the pharmacodynamics of OCA on biomarkers of NASH, including inflammation, apoptosis, and oxidation stress.
Furthermore, plasma bile acids were suppressed by administration of OCA, but no dose response was observed.

[4] = test system: subjects with nonalcoholic steatohepatitis with fibrosis; test: Phase 1 study: liver chemistries (ALT, AST, GGT, bilirubin, ALP); conditions: Day 85 compared to baseline
Description: as §2

[5] = test system: liver function of NASH subjects; test: HepQuant-SHUNT test: disease severity index (DSI) score
Description: The HepQuant®-SHUNT test uses simultaneous orally administered d4-cholate and intravenously administered 13C-cholate (i.e. intravenous (24-^13C cholate) and oral (2,2,4,4-^2H cholate) together with mass spectrometry analysis of five serum samples from the subject to accurately measure liver function and generate a disease severity index (DSI) score. HepQuant®-STAT is a simpler test that uses only orally administered d4-cholate and a single serum sample from the subject to estimate liver function (STAT).
Briefly, the HepQuant®-SHUNT test allows for simultaneous measurement of the perfusion/uptake from portal circulation and perfusion/uptake from systemic circulation, as shown in FIGS. 1 and 2. In a HepQuant®-SHUNT test, a subject is orally administered 40 mg of d4-cholate and intravenously administered 20 mg of 13C-cholate. Blood samples are then isolated from the subject at 5, 20, 45, 60 and 90 minutes after cholate administration. For each sample, mass spectrometry is used to determine the Portal Hepatic Filtration Rate (Portal HFR) and Systemic Hepatic Filtration Rate (Systemic HFR). The Portal HFR is defined as the clearance of 4D-cholate (dose AUC^−1 kg body weight^−1, typically mL mini kg^−1) and the Systemic HFR is defined as the clearance of 13C-cholate (dose AUC^−1 kg body weight^−1, typically mL min^−1 kg^−1). The Portal HFR and Systemic HFR can then be used to calculate a Disease Severity Index (DSI) score. The DSI can be used to determine the extent of liver function, and therefore the extent of liver damage/disease in the subject. Thus, the DSI score can be used to diagnose a subject with a disease. For example, a DSI greater than 16.5 can indicate that the subject will likely have biopsy-proven NASH. A DSI score can also be used to determine the percent likelihood of endoscopic finding of varices in subjects with NASH or hepatitis C virus infection, as shown in FIG. 3. DSI scores can also be measured multiple times during a course of treatment described herein (a treatment regimen) to determine the efficacy of the course of treatment. For example, a baseline DSI score can be measured by performing a HepQuant®-SHUNT test prior to the start of the treatment regimen (i.e. prior to the first administration of the treatment regimen) and then a second DSI score can be measured at a time point during the treatment regimen. The first and second DSI scores can compared to determine a DSI difference score. For example, a reduction in DSI score from the baseline measurement can indicate that the course of treatment is beneficial as the subject's liver function is improving. Depending on the DSI difference score, the treatment regimen can be adjusted, continued or discontinued.
In some aspects, a DSI difference score that is greater than or equal to 2 (i.e. a decrease in the DSI scores of 2 or more over the course of treatment) is considered to be clinically meaningful, based on reducing the probability of any varices from approximately 30% to 20% for subjects with a baseline DSI of 20.
As part of the HepQuant®-SHUNT test, labeled cholate was administered intravenously and orally. The HepQuant®-SHUNT tests were used to determine disease severity index (DSI) scores.

CC[C@H]1[C@@H](O)[C@@H]2[C@H](CC[C@]3(C)[C@@H]([C@H](C)CCC(=O)O)CC[C@@H]23)[C@@]2(C)CC[C@@H](O)C[C@@H]12 [OCA, 3α,7α-dihydroxy-6α-ethyl-5β-cholan-24-oic acid]
plasma exposure of OCA, NASH subjects vs healthy subjects ([1]; day 1 and day 85): modestly higher in NASH subjects | plasma exposure in F4 subjects compared to F1 or F2/F3 ([1]; limited number of F4 subjects): lower | TEAEs leading to study discontinuation ([2]; 10 mg QD and 25 mg QD for 12 weeks): no TEAEs leading to study discontinuation | safety and tolerability ([2]; 10 mg QD and 25 mg QD for 12 weeks, NASH subjects with fibrosis): generally safe and well tolerated | Total Number of TEAEs ([2]; OCA 10 mg QD): 29 | Any Serious TEAE ([2]; OCA 10 mg QD): 0 n (%) | Constipation (TEAE incidence) ([2]; OCA 10 mg QD): 2 (10%) n (%) | Diabetes mellitus (TEAE) ([2]; OCA 10 mg QD): 1 (5%) n (%) | Fatigue (TEAE incidence) ([2]; OCA 10 mg QD): 2 (10%) n (%) | Headache (TEAE incidence) ([2]; OCA 10 mg QD): 0 n (%) | Hepatobiliary disorders (SOC) (TEAE) ([2]; OCA 10 mg QD): 0 n (%) | Hypercholesterolemia (TEAE) ([2]; OCA 10 mg QD): 0 n (%) | LDL Increased, Mild (maximum severity) ([2]; OCA 10 mg QD): 2 (10%) n (%) | LDL Increased, Moderate (maximum severity) ([2]; OCA 10 mg QD): 0 n (%) | LDL Increased, Severe (maximum severity) ([2]; OCA 10 mg QD): 0 n (%) | Low density lipoprotein increased (TEAE incidence) ([2]; OCA 10 mg QD): 2 (10%) n (%) | Nausea (TEAE incidence) ([2]; OCA 10 mg QD): 0 n (%) | Pneumonia (TEAE incidence) ([2]; OCA 10 mg QD): 0 n (%) | Pruritis (TEAE incidence) ([2]; OCA 10 mg QD): 3 (15%) n (%) | Pruritus, Mild (maximum severity) ([2]; OCA 10 mg QD): 3 (15%) n (%) | Pruritus, Moderate (maximum severity) ([2]; OCA 10 mg QD): 0 n (%) | Pruritus, Severe (maximum severity) ([2]; OCA 10 mg QD): 0 n (%) | Subjects with at least one TEAE ([2]; OCA 10 mg QD): 12 (60%) n (%) | Total Number of TEAEs ([2]; OCA 25 mg QD): 36 | Any Serious TEAE ([2]; OCA 25 mg QD): 0 n (%) | Constipation (TEAE incidence) ([2]; OCA 25 mg QD): 2 (10%) n (%) | Diabetes mellitus (TEAE) ([2]; OCA 25 mg QD): 0 n (%) | Fatigue (TEAE incidence) ([2]; OCA 25 mg QD): 3 (15%) n (%) | Headache (TEAE incidence) ([2]; OCA 25 mg QD): 0 n (%) | Hepatobiliary disorders (SOC) (TEAE) ([2]; OCA 25 mg QD): 0 n (%) | Hypercholesterolemia (TEAE) ([2]; OCA 25 mg QD): 1 (5%) n (%) | LDL Increased, Mild (maximum severity) ([2]; OCA 25 mg QD): 1 (5%) n (%) | LDL Increased, Moderate (maximum severity) ([2]; OCA 25 mg QD): 1 (5%) n (%) | LDL Increased, Severe (maximum severity) ([2]; OCA 25 mg QD): 0 n (%) | Low density lipoprotein increased (TEAE incidence) ([2]; OCA 25 mg QD): 2 (10%) n (%) | Nausea (TEAE incidence) ([2]; OCA 25 mg QD): 0 n (%) | Pneumonia (TEAE incidence) ([2]; OCA 25 mg QD): 2 (10%) n (%) | Pruritis (TEAE incidence) ([2]; OCA 25 mg QD): 5 (25%) n (%) | Pruritus, Mild (maximum severity) ([2]; OCA 25 mg QD): 2 (10%) n (%) | Pruritus, Moderate (maximum severity) ([2]; OCA 25 mg QD): 3 (15%) n (%) | Pruritus, Severe (maximum severity) ([2]; OCA 25 mg QD): 0 n (%) | Subjects with at least one TEAE ([2]; OCA 25 mg QD): 15 (75%) n (%) | LDL cholesterol ([2]; OCA treatment groups (10 mg QD, 25 mg QD)): increase in LDL cholesterol | liver exposure of OCA across fibrosis scores ([3]; 10 mg QD, F1 or F2/F3): generally similar across subjects with different fibrosis scores | liver exposure of OCA across fibrosis scores ([3]; 25 mg QD, F1, F2/F3 or F4): generally similar across subjects with different fibrosis scores | liver exposure of OCA across fibrosis scores after normalization by dose ([3]; F1, F2/F3 or F4): generally similar across subjects with different fibrosis scores | FGF-19 levels, percent change from baseline (FXR activation): increased with OCA dose | C4 levels, percent change from baseline (FXR activation; no dose response): suppressed | plasma bile acids, percent change from baseline (FXR activation; no dose response): suppressed | ALP levels, change from baseline [4]: dose dependent increase | biochemistry markers of hepatic cytotoxicity and dysfunction (ALT, AST, GGT, total bilirubin, direct bilirubin) ([4]; no dose-dependent response): suppressed | reduction in DSI ([5]; 10 mg QD or 25 mg QD, Day 85, greater response at 25 mg QD): dose-dependent and clinically meaningful reduction; also recorded: dose-dependent response | subjects treated with OCA among the 18 subjects with clinically relevant ΔDSI of at least −2 ([5]; F1, F2/F3 or F4, 10 mg QD or 25 mg QD, Day 85): 17 subjects | Responders (≥2 point decrease in DSI), % ([5]; F1, OCA 10 mg QD, Day 85, n = 3): (67) % | Responders (≥2 point decrease in DSI), % ([5]; F1, OCA 25 mg QD, Day 85, n = 5): (20) % | change in DSI score (Day 85−Baseline) vs placebo ([5]; F2/F3 NASH subjects, greatest effect at 25 mg QD): greater improvement in DSI score | Responders (≥2 point decrease in DSI), % ([5]; F4, OCA 10 mg QD, Day 85, n = 2): (50) % | Responders (≥2 point decrease in DSI), % ([5]; F4, OCA 25 mg QD, Day 85, n = 1): (100) %
